From PMC8550792, “Evolution of kinase polypharmacology across HSP90 drug discovery” (Cell Chemical Biology, 2021)
Read-outs that look alike come from different tables or passages of the source.

Tests used:
Assay in all cases: biochemical
Assay type in all cases: biochemical
[1] = target: T1, 382 unique human kinases (Homo sapiens, UniProt Q08881); settings: ITK, 10 uM; for remaining activity at 10 µM: read-out: % Enzyme Activity (relative to DMSO controls)
T1 construct: purchased Reaction Biology (HotSpot contract assay)
T1 sequence (Q08881 1-620): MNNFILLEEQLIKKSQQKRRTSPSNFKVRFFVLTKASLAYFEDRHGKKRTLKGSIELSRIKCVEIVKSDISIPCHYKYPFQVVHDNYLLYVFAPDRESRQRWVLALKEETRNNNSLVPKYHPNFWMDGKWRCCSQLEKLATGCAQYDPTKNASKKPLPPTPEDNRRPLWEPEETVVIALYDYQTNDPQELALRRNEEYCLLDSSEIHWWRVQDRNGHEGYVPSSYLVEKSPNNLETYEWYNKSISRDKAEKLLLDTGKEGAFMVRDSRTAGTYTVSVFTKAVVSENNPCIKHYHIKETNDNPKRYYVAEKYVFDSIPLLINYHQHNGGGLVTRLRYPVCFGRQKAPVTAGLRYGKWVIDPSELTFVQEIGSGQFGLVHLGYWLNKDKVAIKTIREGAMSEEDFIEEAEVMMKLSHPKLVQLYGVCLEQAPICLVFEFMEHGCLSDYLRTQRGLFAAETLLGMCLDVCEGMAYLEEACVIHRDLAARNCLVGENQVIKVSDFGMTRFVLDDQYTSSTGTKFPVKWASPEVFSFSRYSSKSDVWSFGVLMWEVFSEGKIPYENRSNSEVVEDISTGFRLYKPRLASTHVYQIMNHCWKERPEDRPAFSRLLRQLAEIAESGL

[2] = target: T2, 382 unique human kinases (Homo sapiens, UniProt Q15120); settings: PDK3/PDHK3, [ATP] 30 µM, compound 10 uM; for remaining activity at 10 µM: read-out: % Enzyme Activity (relative to DMSO controls)
T2 construct: purchased Reaction Biology (HotSpot contract assay)
T2 sequence (Q15120 whole entry): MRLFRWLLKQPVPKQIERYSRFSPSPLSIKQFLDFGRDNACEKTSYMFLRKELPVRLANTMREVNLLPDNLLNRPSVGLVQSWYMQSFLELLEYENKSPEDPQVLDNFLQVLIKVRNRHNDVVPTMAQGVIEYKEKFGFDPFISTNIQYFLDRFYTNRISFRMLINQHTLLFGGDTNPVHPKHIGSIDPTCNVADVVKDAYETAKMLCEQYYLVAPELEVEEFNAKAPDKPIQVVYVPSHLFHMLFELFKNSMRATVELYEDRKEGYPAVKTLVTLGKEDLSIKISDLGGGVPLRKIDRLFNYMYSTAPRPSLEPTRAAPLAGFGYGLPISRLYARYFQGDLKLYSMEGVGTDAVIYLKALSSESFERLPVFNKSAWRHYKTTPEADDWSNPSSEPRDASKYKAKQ

[3] = target: T3, 382 unique human kinases (Homo sapiens, UniProt Q06187); settings: BTK, [ATP] 50 µM, compound 10 uM; for remaining activity at 10 µM: read-out: % Enzyme Activity (relative to DMSO controls)
T3 construct: purchased Reaction Biology (HotSpot contract assay)

[4] = target: T4, 382 unique human kinases (Homo sapiens, UniProt P10721, D816E); settings: c-Kit (D816E), [ATP] 50 µM, compound 10 uM; for remaining activity at 10 µM: read-out: % Enzyme Activity (relative to DMSO controls)
T4 construct: purchased Reaction Biology (HotSpot contract assay)
T4 sequence (P10721 26-976 D816E): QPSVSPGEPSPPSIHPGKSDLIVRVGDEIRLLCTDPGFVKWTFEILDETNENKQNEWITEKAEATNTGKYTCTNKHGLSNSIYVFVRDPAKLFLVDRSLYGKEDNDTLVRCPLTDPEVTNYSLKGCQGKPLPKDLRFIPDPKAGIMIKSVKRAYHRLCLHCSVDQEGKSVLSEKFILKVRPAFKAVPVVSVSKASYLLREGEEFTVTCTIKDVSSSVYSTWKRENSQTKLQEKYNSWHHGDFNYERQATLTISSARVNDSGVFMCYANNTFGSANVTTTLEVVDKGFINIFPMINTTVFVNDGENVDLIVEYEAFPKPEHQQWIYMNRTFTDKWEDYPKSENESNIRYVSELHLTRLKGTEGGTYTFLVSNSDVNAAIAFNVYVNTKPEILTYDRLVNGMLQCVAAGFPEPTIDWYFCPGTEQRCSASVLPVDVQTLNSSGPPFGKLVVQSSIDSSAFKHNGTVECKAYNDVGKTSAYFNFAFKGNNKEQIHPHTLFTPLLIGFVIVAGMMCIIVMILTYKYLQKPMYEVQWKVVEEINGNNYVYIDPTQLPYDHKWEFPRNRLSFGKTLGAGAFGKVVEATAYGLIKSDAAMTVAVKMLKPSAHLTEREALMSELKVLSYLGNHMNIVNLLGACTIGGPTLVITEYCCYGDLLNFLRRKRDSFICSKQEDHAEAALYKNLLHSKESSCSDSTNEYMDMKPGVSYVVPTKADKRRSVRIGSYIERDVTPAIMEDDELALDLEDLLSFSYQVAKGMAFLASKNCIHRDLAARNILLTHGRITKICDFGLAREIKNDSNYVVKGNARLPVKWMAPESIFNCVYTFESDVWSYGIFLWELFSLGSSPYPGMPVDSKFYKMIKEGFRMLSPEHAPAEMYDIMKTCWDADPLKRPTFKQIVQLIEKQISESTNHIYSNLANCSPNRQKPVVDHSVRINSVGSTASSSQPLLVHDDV

[5] = target: T5, 382 unique human kinases (Homo sapiens, UniProt P10721, D816F); settings: c-Kit (D816F), [ATP] 20 µM, compound 10 uM; for remaining activity at 10 µM: read-out: % Enzyme Activity (relative to DMSO controls)
T5 construct: purchased Reaction Biology (HotSpot contract assay)
T5 sequence (P10721 26-976 D816F): as the sequence (P10721 26-976 D816E) above, with E791F counted along it

[6] = target: T6, 382 unique human kinases (Homo sapiens, UniProt Q9UM73, S1206R); settings: ALK (S1206R), [ATP] 20 µM, compound 10 uM; for remaining activity at 10 µM: read-out: % Enzyme Activity (relative to DMSO controls)
T6 construct: purchased Reaction Biology (HotSpot contract assay)
T6 sequence (Q9UM73 19-1620 S1206R): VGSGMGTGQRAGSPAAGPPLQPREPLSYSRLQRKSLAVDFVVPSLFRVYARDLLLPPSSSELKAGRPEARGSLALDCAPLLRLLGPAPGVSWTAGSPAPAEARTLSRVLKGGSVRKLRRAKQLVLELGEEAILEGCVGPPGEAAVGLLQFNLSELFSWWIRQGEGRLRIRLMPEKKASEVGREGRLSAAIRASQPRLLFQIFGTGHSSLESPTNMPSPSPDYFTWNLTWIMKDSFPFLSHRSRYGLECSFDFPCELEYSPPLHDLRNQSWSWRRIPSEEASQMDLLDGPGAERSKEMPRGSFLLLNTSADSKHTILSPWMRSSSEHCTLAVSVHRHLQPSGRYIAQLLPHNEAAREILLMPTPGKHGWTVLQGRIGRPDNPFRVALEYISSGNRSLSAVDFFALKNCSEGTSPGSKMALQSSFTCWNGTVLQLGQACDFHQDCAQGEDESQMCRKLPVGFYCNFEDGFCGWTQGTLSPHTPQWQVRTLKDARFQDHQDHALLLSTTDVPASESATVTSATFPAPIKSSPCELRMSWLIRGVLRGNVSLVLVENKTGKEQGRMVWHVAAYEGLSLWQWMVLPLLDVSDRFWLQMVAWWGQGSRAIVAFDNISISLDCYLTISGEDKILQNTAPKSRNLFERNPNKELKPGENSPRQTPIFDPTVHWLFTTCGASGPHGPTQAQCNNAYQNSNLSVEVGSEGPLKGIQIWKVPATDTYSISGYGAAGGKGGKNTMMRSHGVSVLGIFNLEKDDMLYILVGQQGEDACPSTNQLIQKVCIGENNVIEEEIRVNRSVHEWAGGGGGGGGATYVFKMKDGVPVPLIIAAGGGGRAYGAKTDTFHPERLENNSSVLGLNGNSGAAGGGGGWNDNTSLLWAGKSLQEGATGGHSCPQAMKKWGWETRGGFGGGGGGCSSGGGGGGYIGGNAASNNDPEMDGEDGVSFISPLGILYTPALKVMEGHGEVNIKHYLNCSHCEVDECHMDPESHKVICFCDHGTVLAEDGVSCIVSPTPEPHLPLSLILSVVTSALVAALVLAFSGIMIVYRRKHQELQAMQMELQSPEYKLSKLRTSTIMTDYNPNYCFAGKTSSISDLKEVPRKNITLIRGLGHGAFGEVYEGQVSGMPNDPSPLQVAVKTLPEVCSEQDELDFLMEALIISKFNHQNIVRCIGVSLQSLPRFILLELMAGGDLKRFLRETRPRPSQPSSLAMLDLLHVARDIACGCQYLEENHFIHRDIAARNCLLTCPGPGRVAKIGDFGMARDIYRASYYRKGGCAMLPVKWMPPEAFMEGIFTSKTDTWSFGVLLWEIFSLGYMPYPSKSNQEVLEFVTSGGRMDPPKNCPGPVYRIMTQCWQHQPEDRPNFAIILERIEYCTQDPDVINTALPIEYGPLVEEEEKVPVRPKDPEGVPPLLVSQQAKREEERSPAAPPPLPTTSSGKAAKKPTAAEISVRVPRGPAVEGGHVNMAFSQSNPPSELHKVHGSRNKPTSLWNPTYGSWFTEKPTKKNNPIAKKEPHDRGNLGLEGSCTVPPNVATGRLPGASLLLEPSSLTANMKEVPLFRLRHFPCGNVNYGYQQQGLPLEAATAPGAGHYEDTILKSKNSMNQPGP

[7] = target: T7, 382 unique human kinases (Homo sapiens, UniProt Q96KB5); settings: PBK/TOPK, 10 uM; for remaining activity at 10 µM: read-out: % Enzyme Activity (relative to DMSO controls)
T7 construct: purchased Reaction Biology (HotSpot contract assay)
T7 sequence (Q96KB5 1-322): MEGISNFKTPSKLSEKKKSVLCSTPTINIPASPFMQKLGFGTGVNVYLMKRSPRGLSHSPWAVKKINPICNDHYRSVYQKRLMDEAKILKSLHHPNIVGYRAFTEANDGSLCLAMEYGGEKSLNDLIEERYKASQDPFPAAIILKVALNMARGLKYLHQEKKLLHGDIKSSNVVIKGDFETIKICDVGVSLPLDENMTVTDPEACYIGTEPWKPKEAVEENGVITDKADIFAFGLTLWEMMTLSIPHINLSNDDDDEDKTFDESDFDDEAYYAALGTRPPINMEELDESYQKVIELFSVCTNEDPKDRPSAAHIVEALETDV

[8] = target: T8, 382 unique human kinases (Homo sapiens, UniProt Q9H4B4); settings: PLK3, [ATP] 100 µM, compound 10 uM; for remaining activity at 10 µM: read-out: % Enzyme Activity (relative to DMSO controls)
T8 construct: purchased Reaction Biology (HotSpot contract assay)
T8 sequence (Q9H4B4 whole entry): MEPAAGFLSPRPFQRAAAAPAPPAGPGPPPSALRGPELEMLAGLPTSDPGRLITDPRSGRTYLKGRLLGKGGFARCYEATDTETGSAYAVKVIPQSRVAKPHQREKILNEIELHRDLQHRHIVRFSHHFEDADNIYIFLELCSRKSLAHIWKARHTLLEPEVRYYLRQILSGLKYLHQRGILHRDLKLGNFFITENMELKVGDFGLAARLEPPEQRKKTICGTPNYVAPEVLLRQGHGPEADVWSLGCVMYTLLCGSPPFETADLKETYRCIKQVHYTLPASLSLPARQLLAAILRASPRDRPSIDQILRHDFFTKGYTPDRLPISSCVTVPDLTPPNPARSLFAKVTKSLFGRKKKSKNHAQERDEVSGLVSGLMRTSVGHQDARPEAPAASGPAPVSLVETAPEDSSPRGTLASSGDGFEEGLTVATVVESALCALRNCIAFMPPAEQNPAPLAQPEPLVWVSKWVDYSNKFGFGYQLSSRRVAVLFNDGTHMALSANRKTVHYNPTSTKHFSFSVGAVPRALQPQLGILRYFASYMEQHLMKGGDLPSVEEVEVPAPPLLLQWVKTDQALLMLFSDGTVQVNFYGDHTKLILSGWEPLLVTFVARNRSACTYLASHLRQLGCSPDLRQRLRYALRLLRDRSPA

[9] = target: T9, 382 unique human kinases (Homo sapiens, UniProt Q06187, C481S); settings: BTK (C481S), [ATP] 15 µM, compound 10 uM; for remaining activity at 10 µM: read-out: % Enzyme Activity (relative to DMSO controls)
T9 construct: purchased Reaction Biology (HotSpot contract assay)

[10] = target: T10, 382 unique human kinases (Homo sapiens, UniProt Q16584); settings: MLK3/MAP3K11, 10 uM; for remaining activity at 10 µM: read-out: % Enzyme Activity (relative to DMSO controls)
T10 construct: purchased Reaction Biology (HotSpot contract assay)

[11] = target: T11, 382 unique human kinases (Homo sapiens, UniProt P07949, G691S); settings: RET (G691S), 10 uM; for remaining activity at 10 µM: read-out: % Enzyme Activity (relative to DMSO controls)
T11 construct: purchased Reaction Biology (HotSpot contract assay)

[12] = target: T12, 382 unique human kinases (Homo sapiens, UniProt Q8N568); settings: DCAMKL2, 10 uM; for remaining activity at 10 µM: read-out: % Enzyme Activity (relative to DMSO controls)
T12 construct: purchased Reaction Biology (HotSpot contract assay)
T12 sequence (Q8N568 whole entry): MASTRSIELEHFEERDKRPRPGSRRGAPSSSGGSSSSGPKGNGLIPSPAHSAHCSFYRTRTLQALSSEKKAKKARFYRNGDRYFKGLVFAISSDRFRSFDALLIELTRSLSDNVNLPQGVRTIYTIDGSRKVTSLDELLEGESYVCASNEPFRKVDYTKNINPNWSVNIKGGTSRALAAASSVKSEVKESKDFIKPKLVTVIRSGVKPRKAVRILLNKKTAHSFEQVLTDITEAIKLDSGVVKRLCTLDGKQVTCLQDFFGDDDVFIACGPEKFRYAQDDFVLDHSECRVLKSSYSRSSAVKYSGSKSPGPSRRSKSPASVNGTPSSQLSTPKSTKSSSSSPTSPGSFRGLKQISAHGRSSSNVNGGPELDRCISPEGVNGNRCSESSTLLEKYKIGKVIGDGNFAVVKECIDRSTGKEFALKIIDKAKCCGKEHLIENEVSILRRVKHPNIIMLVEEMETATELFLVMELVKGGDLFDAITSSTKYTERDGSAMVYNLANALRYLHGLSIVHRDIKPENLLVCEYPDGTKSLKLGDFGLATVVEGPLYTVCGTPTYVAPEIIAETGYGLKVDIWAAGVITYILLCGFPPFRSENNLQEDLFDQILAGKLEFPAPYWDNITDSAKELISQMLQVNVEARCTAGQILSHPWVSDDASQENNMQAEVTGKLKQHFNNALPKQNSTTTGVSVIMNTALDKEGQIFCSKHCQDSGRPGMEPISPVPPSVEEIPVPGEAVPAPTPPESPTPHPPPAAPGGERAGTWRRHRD

[13] = target: T13, 382 unique human kinases (Homo sapiens, UniProt Q9Y243); settings: AKT3, 10 uM; for remaining activity at 10 µM: read-out: % Enzyme Activity (relative to DMSO controls)
T13 construct: purchased Reaction Biology (HotSpot contract assay)

[14] = target: T14, 382 unique human kinases (Homo sapiens, UniProt Q00535); settings: for remaining activity at 10 µM: read-out: % Enzyme Activity (relative to DMSO controls)
T14 construct: purchased Reaction Biology (HotSpot contract assay)
T14 sequence (Q00535 whole entry): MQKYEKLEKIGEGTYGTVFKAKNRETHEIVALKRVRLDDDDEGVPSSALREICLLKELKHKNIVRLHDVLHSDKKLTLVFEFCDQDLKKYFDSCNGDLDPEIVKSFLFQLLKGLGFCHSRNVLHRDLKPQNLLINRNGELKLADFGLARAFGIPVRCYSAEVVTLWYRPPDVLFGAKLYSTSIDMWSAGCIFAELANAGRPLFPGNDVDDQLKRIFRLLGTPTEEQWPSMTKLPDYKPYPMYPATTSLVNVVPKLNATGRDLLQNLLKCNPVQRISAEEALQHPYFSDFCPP

[15] = target: T15, 382 unique human kinases (Homo sapiens, UniProt Q00526); settings: kinase CDK3/cyclin E, compound 10 uM; for remaining activity at 10 µM: read-out: % Enzyme Activity (relative to DMSO controls)
T15 construct: purchased Reaction Biology (HotSpot contract assay)

[16] = target: T16, 382 unique human kinases (Homo sapiens, UniProt Q02750, P124L); settings: MEK1 (P124L), 10 uM; for remaining activity at 10 µM: read-out: % Enzyme Activity (relative to DMSO controls)
T16 construct: purchased Reaction Biology (HotSpot contract assay)

[17] = target: T17, 382 unique human kinases (Homo sapiens, UniProt Q9H4A3); settings: WNK1, 10 uM; for remaining activity at 10 µM: read-out: % Enzyme Activity (relative to DMSO controls)
T17 construct: purchased Reaction Biology (HotSpot contract assay)

[18] = target: T18, 382 unique human kinases (Homo sapiens, UniProt P50613); settings: kinase CDK7/cyclin H, compound 10 uM; for remaining activity at 10 µM: read-out: % Enzyme Activity (relative to DMSO controls)
T18 construct: purchased Reaction Biology (HotSpot contract assay)
T18 sequence (P50613 whole entry): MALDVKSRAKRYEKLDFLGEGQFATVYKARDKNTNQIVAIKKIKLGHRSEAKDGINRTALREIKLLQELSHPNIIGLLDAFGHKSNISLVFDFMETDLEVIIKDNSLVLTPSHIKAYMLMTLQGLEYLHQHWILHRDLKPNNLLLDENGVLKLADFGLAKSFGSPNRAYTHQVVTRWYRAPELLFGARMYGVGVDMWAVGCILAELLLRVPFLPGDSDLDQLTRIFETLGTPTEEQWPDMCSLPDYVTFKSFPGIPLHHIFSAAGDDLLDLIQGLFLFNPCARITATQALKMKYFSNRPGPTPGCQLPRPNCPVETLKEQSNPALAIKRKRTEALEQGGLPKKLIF

[19] = target: T19, 382 unique human kinases (Homo sapiens, UniProt P21802); settings: FGFR2, 10 uM; for remaining activity at 10 µM: read-out: % Enzyme Activity (relative to DMSO controls)
T19 construct: purchased Reaction Biology (HotSpot contract assay)

[20] = target: T20, 382 unique human kinases (Homo sapiens, UniProt Q5VT25); settings: kinase MRCKa/CDC42BPA, compound 10 uM; for remaining activity at 10 µM: read-out: % Enzyme Activity (relative to DMSO controls)
T20 construct: purchased Reaction Biology (HotSpot contract assay)

[21] = kinase CDK5/p25, compound 10 uM

## CCNC(=O)c1noc(-c2cc(C(C)C)c(O)cc2O)c1-c1ccc(CN2CCOCC2)cc1 [Luminespib]
[1]
  % Enzyme Activity (relative to DMSO controls): 92.96%
  remaining activity at 10 µM: 94.1%
[2]
  % Enzyme Activity (relative to DMSO controls): 75.85%
  remaining activity at 10 µM: 76.8%
[3]
  % Enzyme Activity (relative to DMSO controls): 74.40%
  remaining activity at 10 µM: 74.9%
[4]
  % Enzyme Activity (relative to DMSO controls): 73.14%
  remaining activity at 10 µM: 76.2%
[5]
  % Enzyme Activity (relative to DMSO controls): 70.41%
  remaining activity at 10 µM: 70.9%
[6]
  % Enzyme Activity (relative to DMSO controls): 100.88%
  remaining activity at 10 µM: 104%
[7]
  % Enzyme Activity (relative to DMSO controls): 96.61%
  remaining activity at 10 µM: 98.3%
[8]
  % Enzyme Activity (relative to DMSO controls): 99.40%
  remaining activity at 10 µM: 99.4%
[9]
  % Enzyme Activity (relative to DMSO controls): 41.81%
  remaining activity at 10 µM: 43.2%
[10]
  % Enzyme Activity (relative to DMSO controls): 103.89%
  remaining activity at 10 µM: 104%
[11]
  % Enzyme Activity (relative to DMSO controls): 100.12%
  remaining activity at 10 µM: 101%
[12]
  % Enzyme Activity (relative to DMSO controls): 96.30%
  remaining activity at 10 µM: 97.8%
[13]
  % Enzyme Activity (relative to DMSO controls): 99.02%
  remaining activity at 10 µM: 100%

## CC(C)c1cc(-c2n[nH]c(=O)n2-c2ccc3c(ccn3C)c2)c(O)cc1O [Ganetespib (STA9090)]
[14]; CDK5/p35, 10 uM
  remaining activity at 10 µM: 70.1%
[14]; [21]
  remaining activity at 10 µM: 80.9%
[15]
  remaining activity at 10 µM: 82.2%
[16]
  remaining activity at 10 µM: 73.7%
[17]
  remaining activity at 10 µM: 94.2%
[18]
  remaining activity at 10 µM: 95.8%
[19]
  remaining activity at 10 µM: 68.3%
[20]
  remaining activity at 10 µM: 87.6%

## CCNC(=O)c1noc(-c2cc(C(C)C)c(O)cc2O)c1-c1ccc(CN2CCOCC2)cc1 [Luminespib (AUY-922)]
[14]; CDK5/p35, 10 uM
  % Enzyme Activity (relative to DMSO controls): 102.70%
  remaining activity at 10 µM: 103%
[14]; [21]
  % Enzyme Activity (relative to DMSO controls): 102.12%
  remaining activity at 10 µM: 102%
[15]
  % Enzyme Activity (relative to DMSO controls): 102.34%
  remaining activity at 10 µM: 103%
[16]
  % Enzyme Activity (relative to DMSO controls): 99.77%
  remaining activity at 10 µM: 102%
[17]
  % Enzyme Activity (relative to DMSO controls): 68.64%
  remaining activity at 10 µM: 70.4%
[18]
  % Enzyme Activity (relative to DMSO controls): 84.47%
  remaining activity at 10 µM: 85.3%
[19]
  % Enzyme Activity (relative to DMSO controls): 98.90%
  remaining activity at 10 µM: 99.8%
[20]
  % Enzyme Activity (relative to DMSO controls): 98.43%
  remaining activity at 10 µM: 99.7%

## CC(C)c1cc(-c2n[nH]c(=O)n2-c2ccc3c(ccn3C)c2)c(O)cc1O [Ganetespib]
[1]
  remaining activity at 10 µM: 95.6%
[2]
  remaining activity at 10 µM: 22.3%
[3]
  remaining activity at 10 µM: 56%
[4]
  remaining activity at 10 µM: 41.2%
[5]
  remaining activity at 10 µM: 31%
[6]
  remaining activity at 10 µM: 42%
[7]
  remaining activity at 10 µM: 93.8%
[8]
  remaining activity at 10 µM: 39.6%
[9]
  remaining activity at 10 µM: 65%
[10]
  remaining activity at 10 µM: 91%
[11]
  remaining activity at 10 µM: 98.6%
[12]
  remaining activity at 10 µM: 96.7%
[13]
  remaining activity at 10 µM: 92.1%
